Measurements published in patent publication US10189841B2, “Purinones as ubiquitin-specific protease 1 inhibitors” (Forma Therapeutics, Inc., priority 2015, dated 2019).

Molecular target: USP1 (construct USP1 (I-785, GG670, 671AA)/UAF1 (I-677)-Flag) (Homo sapiens (Human), UniProt O94782, G670A/G671A)
Test: Ubiquitin-Rhodamine 110 assay for USP1 activity
Assay type: biochemical
Conditions: USP1/UAF1 25 pM, Ub-Rh110 25 nM, 30 min preincubation
Description: Example 53: Ubitquin-Rhodamine 110 Assay for USP1 Activity
The HTS assay was performed in a final volume of 20 μL in assay buffer containing 20 mM Tris-HCl (pH 8.0, (1M Tris-HCl, pH 8.0 solution; Corning 46-031-CM)), 2 mM CaCl2 (1M Calcium Chloride solution; Sigma #21114) 1 mM GSH (L-Glutathione reduced; Sigma #G4251), 0.01% Prionex ([…] filtered, Sigma #G-0411), and 0.01% Triton X-100. Stock compound solutions were stored at −20° C. as 10 mM in DMSO. Up to 1 month prior to the assay, 2 mM test compounds were pre-dispensed into assay plates (Black, low volume; Corning #3820) and frozen at −20° C. Prestamped assay plates were allowed to come to room temperature on the day of the assay. For the screen, 100 nL of 2 mM was pre-dispensed for a final screening concentration of […] (DMSO(fc)=0.5%). The final concentration of the enzyme (USP1, construct USP1 (I-785, GG670, 671AA)/UAF1 (I-677)-Flag; Viva) in the assay was 100 pM. Final substrate (Ub-Rh110; Ubiquitin-Rhodamine 110, R&D Systems #U-555) concentration was 25 nM with [Ub-Rh110]<<Km. […] Plates were incubated stacked for 45 minutes at room temperature before fluorescence was read on the Envision (Excitation at 485 nm and Emission at 535 nm; Perkin Elmer) or on the PheraSTAR (Excitation at 485 nm and Emission at 535 nm; BMG Labtech)
Nanoliter quantities of either an 8-point or 10-point, 3-fold serial dilution in DMSO was pre-dispensed into assay plates (Perkin Elmer, ProxiPlate-384 F Plus, #6008269) for a final test concentration range of either 25 μM to 11 nM or 25 μM to 1.3 nM, respectively. The final concentration of the enzyme (USP1, construct USP1 (I-785, GG670, 671AA)/UAF1 (I-677)-Flag; Viva) in the assay was 25 pM. Final substrate (Ub-Rh110; Ubiquitin-Rhodamine 110, R&D Systems #U-555) concentration was 25 nM with [Ub-Rh110]<<Km. […] Plates were incubated stacked for 20 minutes at room temperature before 5 μL of stop solution (final concentration of 10 mM citric acid in assay buffer (Sigma, #251275-500G)). Fluorescence was read on the Envision (Excitation at 485 nm and Emission at 535 nm; Perkin Elmer) or on the PheraSTAR (Excitation at 485 nm and Emission at 535 nm; BMG Labtech).
For both assay formats data were reported as percent inhibition compared with control wells based on the following equation: % inh=[1−((FLU−AveLow)/(AveHigh−AveLow))]×100 where FLU=measured Fluorescence, AveLow=average Fluorescence of no enzyme control (n=16), and AveHigh=average Fluorescence of DMSO control (n=16). IC50 values were determined by curve fitting of the standard 4 parameter logistic fitting algorithm included in the Activity Base software package: IDBS XE Designer Model205. Data is fitted using the Levenburg Marquardt algorithm.

Sequence of USP1 (construct USP1 (I-785, GG670, 671AA)/UAF1 (I-677)-Flag) (O94782 whole entry G670A/G671A): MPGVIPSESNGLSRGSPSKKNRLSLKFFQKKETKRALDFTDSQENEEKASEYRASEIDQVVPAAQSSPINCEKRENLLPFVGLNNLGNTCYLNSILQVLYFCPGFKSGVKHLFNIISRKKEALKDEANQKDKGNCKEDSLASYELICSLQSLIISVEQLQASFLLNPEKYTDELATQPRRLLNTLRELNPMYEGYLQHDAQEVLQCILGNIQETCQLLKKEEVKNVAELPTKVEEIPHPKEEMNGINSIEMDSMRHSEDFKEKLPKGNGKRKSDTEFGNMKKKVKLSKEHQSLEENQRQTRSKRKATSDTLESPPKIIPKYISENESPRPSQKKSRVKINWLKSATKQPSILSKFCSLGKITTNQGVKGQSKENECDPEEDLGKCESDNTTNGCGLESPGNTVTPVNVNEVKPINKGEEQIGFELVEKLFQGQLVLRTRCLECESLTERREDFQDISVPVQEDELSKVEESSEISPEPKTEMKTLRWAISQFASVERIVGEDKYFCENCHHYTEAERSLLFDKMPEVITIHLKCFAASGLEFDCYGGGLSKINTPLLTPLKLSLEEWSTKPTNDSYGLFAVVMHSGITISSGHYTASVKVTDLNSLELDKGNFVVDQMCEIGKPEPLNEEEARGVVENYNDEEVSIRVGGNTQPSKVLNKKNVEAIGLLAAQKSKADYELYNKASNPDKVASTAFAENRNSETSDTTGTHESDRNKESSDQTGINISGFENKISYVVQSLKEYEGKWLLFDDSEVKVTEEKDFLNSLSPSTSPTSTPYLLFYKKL
Sequence of USP1 (construct USP1 (I-785, GG670, 671AA)/UAF1 (I-677)-Flag) (Q8TAF3 whole entry partner): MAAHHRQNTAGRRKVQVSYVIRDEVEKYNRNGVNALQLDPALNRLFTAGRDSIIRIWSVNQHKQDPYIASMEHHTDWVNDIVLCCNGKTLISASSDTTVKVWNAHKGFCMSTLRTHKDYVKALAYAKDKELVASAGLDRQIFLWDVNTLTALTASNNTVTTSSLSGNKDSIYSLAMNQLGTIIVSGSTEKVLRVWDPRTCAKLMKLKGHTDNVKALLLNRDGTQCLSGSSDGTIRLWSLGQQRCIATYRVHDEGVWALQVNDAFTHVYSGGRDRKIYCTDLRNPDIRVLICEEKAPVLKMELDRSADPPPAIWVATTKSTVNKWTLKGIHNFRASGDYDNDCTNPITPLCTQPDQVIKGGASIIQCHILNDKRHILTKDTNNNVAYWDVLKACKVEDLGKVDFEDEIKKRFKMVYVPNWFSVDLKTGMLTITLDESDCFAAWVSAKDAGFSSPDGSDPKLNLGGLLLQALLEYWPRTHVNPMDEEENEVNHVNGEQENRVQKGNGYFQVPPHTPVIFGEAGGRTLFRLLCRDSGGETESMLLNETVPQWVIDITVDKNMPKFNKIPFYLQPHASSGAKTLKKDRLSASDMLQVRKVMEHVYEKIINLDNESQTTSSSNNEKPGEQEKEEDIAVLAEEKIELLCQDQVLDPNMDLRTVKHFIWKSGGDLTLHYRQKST

`Cn1cc(C(F)(F)F)nc1-c1ccc(Cn2c(=O)[nH]c3cnc(-c4ccccc4C(F)F)nc32)cc1` [Compound I-31, 2-(2-(difluoromethyl)phenyl)-9-(4-(1-methyl-4-(trifluoromethyl)-1H-imidazol-2-yl)benzyl)-7,9-dihydro-8H-purin-8-one] and `CO[C@H](C)c1ccccc1-c1ncc2[nH]c(=O)n(Cc3ccc(-c4nc(C(F)(F)F)cn4C)cc3)c2n1` [Compound I-55, (R)-2-(2-(1-methoxyethyl)phenyl)-9-(4-(1-methyl-4-(trifluoromethyl)-1H-imidazol-2-yl)benzyl)-7,9-dihydro-8H-purin-8-one] cannot be ordered by IC50: less than 50 nM for the first, less than 50 nM for the second.

First: CC(C)c1ncccc1-c1ncc2[nH]c(=O)n(Cc3ccc(-c4nc(C(F)(F)F)cn4C4COC4)cc3)c2n1 [Compound I-32, 2-(2-isopropylpyridin-3-yl)-9-(4-(1-(oxetan-3-yl)-4-(trifluoromethyl)-1H-imidazol-2-yl)benzyl)-7,9-dihydro-8H-purin-8-one]
Second: O=c1[nH]c2cnc(-c3cccnc3C3CC3)nc2n1Cc1ccc(-c2nc(C(F)(F)F)cn2C2COC2)cc1 [Compound I-33, 2-(2-cyclopropylpyridin-3-yl)-9-(4-(1-(oxetan-3-yl)-4-(trifluoromethyl)-1H-imidazol-2-yl)benzyl)-7,9-dihydro-8H-purin-8-one]
The IC50 of the first is higher: 50 to 200 nM for the first, less than 50 nM for the second. The second is the more potent here.

`CN1CCc2cccc(-c3ncc4[nH]c(=O)n(Cc5ccc(-c6nc(C(F)(F)F)cn6C)cc5)c4n3)c21` [Compound I-34, 9-(4-(1-methyl-4-(trifluoromethyl)-1H-imidazol-2-yl)benzyl)-2-(1-methylindolin-7-yl)-7,9-dihydro-8H-purin-8-one] and `Cn1cc(C(F)(F)F)nc1-c1ccc(Cn2c(=O)[nH]c3cnc(-c4cccc5cnn(C)c45)nc32)cc1` [Compound I-44, 2-(1-methyl-1H-indazol-7-yl)-9-(4-(1-methyl-4-(trifluoromethyl)-1H-imidazol-2-yl)benzyl)-7,9-dihydro-8H-purin-8-one] cannot be ordered by IC50: less than 50 nM for the first, less than 50 nM for the second.

`Cn1cc(C(F)(F)F)nc1-c1ccc(Cn2c(=O)[nH]c3cnc(-c4cccnc4OC(F)F)nc32)cc1` [Compound I-35, 2-(2-(difluoromethoxy)pyridin-3-yl)-9-(4-(1-methyl-4-(trifluoromethyl)-1H-imidazol-2-yl)benzyl)-7,9-dihydro-8H-purin-8-one] and `Cn1cc(C(F)(F)F)nc1-c1ccc(Cn2c(=O)n(C)c3cnc(-c4cccnc4OC(F)F)nc32)cc1` [Compound I-48, 2-(2-(difluoromethoxy)pyridin-3-yl)-7-methyl-9-(4-(1-methyl-4-(trifluoromethyl)-1H-imidazol-2-yl)benzyl)-7,9-dihydro-8H-purin-8-one] cannot be ordered by IC50: less than 50 nM for the first, less than 50 nM for the second.

Compared with `Cn1cc(C(F)(F)F)nc1-c1ccc(Cn2c(=O)[nH]c3cnc(-c4cccc5c4OC(F)(F)O5)nc32)cc1` [Compound I-36, 2-(2,2-difluorobenzo[d][1,3]dioxol-4-yl)-9-(4-(1-methyl-4-(trifluoromethyl)-1H-imidazol-2-yl)benzyl)-7,9-dihydro-8H-purin-8-one], `Cn1cc(C(F)(F)F)nc1-c1ccc(Cn2c(=O)[nH]c3cnc(-c4cccc5ccn(C)c45)nc32)cc1` [Compound I-45, 2-(1-methyl-1H-indol-7-yl)-9-(4-(1-methyl-4-(trifluoromethyl)-1H-imidazol-2-yl)benzyl)-7,9-dihydro-8H-purin-8-one] is lower in IC50: 200 to 2000 nM for the first, less than 50 nM for the second.

`Cn1cc(C(F)(F)F)nc1-c1ccc(Cn2c(=O)[nH]c3cnc(-c4ccccc4OC(F)(F)F)nc32)cc1` [Compound I-37, 9-(4-(1-methyl-4-(trifluoromethyl)-1H-imidazol-2-yl)benzyl)-2-(2-(trifluoromethoxy)phenyl)-7,9-dihydro-8H-purin-8-one] and `Cn1cc(C(F)(F)F)nc1-c1ccc(Cn2c(=O)n(C)c3cnc(-c4ccccc4OC(F)(F)F)nc32)cc1` [Compound I-49, 7-methyl-9-(4-(1-methyl-4-(trifluoromethyl)-1H-imidazol-2-yl)benzyl)-2-(2-(trifluoromethoxy)phenyl)-7,9-dihydro-8H-purin-8-one] cannot be ordered by IC50: less than 50 nM for the first, less than 50 nM for the second.

`CC(=O)c1ccccc1-c1ncc2[nH]c(=O)n(Cc3ccc(-c4nc(C(F)(F)F)cn4C)cc3)c2n1` [Compound I-38, 2-(2-acetylphenyl)-9-(4-(1-methyl-4-(trifluoromethyl)-1H-imidazol-2-yl)benzyl)-7,9-dihydro-8H-purin-8-one] and `CO[C@@H](C)c1ccccc1-c1ncc2[nH]c(=O)n(Cc3ccc(-c4nc(C(F)(F)F)cn4C)cc3)c2n1` [Compound I-56, (S)-2-(2-(1-methoxyethyl)phenyl)-9-(4-(1-methyl-4-(trifluoromethyl)-1H-imidazol-2-yl)benzyl)-7,9-dihydro-8H-purin-8-one] cannot be ordered by IC50: less than 50 nM for the first, less than 50 nM for the second.

`Cc1cc(C(F)(F)F)nn1-c1ccc(Cn2c(=O)[nH]c3cnc(-c4cccnc4C(C)C)nc32)cc1` [Compound I-40, 2-(2-isopropylpyridin-3-yl)-9-(4-(5-methyl-3-(trifluoromethyl)-1H-pyrazol-1-yl)benzyl)-7,9-dihydro-8H-purin-8-one] and `Cc1cc(Cl)nn1-c1ccc(Cn2c(=O)[nH]c3cnc(-c4cccnc4C(C)C)nc32)cc1` [Compound I-52, 9-(4-(3-chloro-5-methyl-1H-pyrazol-1-yl)benzyl)-2-(2-isopropylpyridin-3-yl)-7,9-dihydro-8H-purin-8-one] cannot be ordered by IC50: less than 50 nM for the first, less than 50 nM for the second.

Compared with `Cc1cc(C(F)(F)F)n(-c2ccc(Cn3c(=O)[nH]c4cnc(-c5cccnc5OCC(F)(F)F)nc43)cc2)n1` [Compound I-41, 9-(4-(3-methyl-5-(trifluoromethyl)-1H-pyrazol-1-yl)benzyl)-2-(2-(2,2,2-trifluoroethoxy)pyridin-3-yl)-7,9-dihydro-8H-purin-8-one], `Cn1cc(C(F)(F)F)nc1-c1ccc(Cn2c(=O)n(C)c3cnc(-c4cccnc4OCC(F)(F)F)nc32)cc1` [Compound I-50, 7-methyl-9-(4-(1-methyl-4-(trifluoromethyl)-1H-imidazol-2-yl)benzyl)-2-(2-(2,2,2-trifluoroethoxy)pyridin-3-yl)-7,9-dihydro-8H-purin-8-one] is lower in IC50: 50 to 200 nM for the first, less than 50 nM for the second.

First: COCCn1cc(C(F)(F)F)nc1-c1ccc(Cn2c(=O)[nH]c3cnc(-c4cccnc4C(C)C)nc32)cc1 [Compound I-43, 2-(2-isopropylpyridin-3-yl)-9-(4-(1-(2-methoxyethyl)-4-(trifluoromethyl)-1H-imidazol-2-yl)benzyl)-7,9-dihydro-8H-purin-8-one]
Second: Cc1cn(C)nc1-c1ccc(Cn2c(=O)[nH]c3cnc(-c4cccnc4C(C)C)nc32)cc1 [Compound I-47, 9-(4-(1,4-dimethyl-1H-pyrazol-3-yl)benzyl)-2-(2-isopropylpyridin-3-yl)-7,9-dihydro-8H-purin-8-one]
The IC50 of the first is lower: 50 to 200 nM for the first, 200 to 2000 nM for the second.

First: CC(C)c1ncccc1-c1ncc2[nH]c(=O)n(Cc3ccc(-c4ccn(C)n4)cc3)c2n1 [Compound I-46, 2-(2-isopropylpyridin-3-yl)-9-(4-(1-methyl-1H-pyrazol-3-yl)benzyl)-7,9-dihydro-8H-purin-8-one]
Second: Cc1cc(Cl)n(-c2ccc(Cn3c(=O)[nH]c4cnc(-c5cccnc5C(C)C)nc43)cc2)n1 [Compound I-53, 9-(4-(5-chloro-3-methyl-1H-pyrazol-1-yl)benzyl)-2-(2-isopropylpyridin-3-yl)-7,9-dihydro-8H-purin-8-one]
The IC50 of the first is higher: 200 to 2000 nM for the first, less than 50 nM for the second.

First: CC(C)c1ncccc1-c1ncc2[nH]c(=O)n(C3(c4ccc(-c5nc(C(F)(F)F)cn5C)cc4)CC3)c2n1 [Compound I-51, 2-(2-isopropylpyridin-3-yl)-9-(1-(4-(1-methyl-4-(trifluoromethyl)-1H-imidazol-2-yl)phenyl)cyclopropyl)-7,9-dihydro-8H-purin-8-one]
Second: Cc1cccn1-c1ccc(Cn2c(=O)[nH]c3cnc(-c4cccnc4C(C)C)nc32)cc1 [Compound I-54, 2-(2-isopropylpyridin-3-yl)-9-(4-(2-methyl-1H-pyrrol-1-yl)benzyl)-7,9-dihydro-8H-purin-8-one]
The IC50 of the first is lower: less than 50 nM for the first, 200 to 2000 nM for the second.
